Assay type in all cases: biochemical
Experiment [1] has as its target T1, c-Met (Homo sapiens, UniProt P08581). Kind of experiment: Kinase-Glo Plus luminescence kinase assay, single dose […] (weak, partial inhibition). For orientation: Kinase-Glo reads ATP consumption through a luciferase reaction.
Experiment [2] deals with T2, CDK2 (Homo sapiens, UniProt P24941).
T2 construct: with cyclin E (IC50)
The experiment in a line: in vitro kinase assay, dose-response on CDK2/E (Kinase-Glo Plus luminescence described for CDK2/cyclin A2).

Experiment [3] concerns the target T1, c-Met. Kind of experiment: Kinase-Glo Plus luminescence kinase assay, single dose […].

T1 sequence (P08581 25-307): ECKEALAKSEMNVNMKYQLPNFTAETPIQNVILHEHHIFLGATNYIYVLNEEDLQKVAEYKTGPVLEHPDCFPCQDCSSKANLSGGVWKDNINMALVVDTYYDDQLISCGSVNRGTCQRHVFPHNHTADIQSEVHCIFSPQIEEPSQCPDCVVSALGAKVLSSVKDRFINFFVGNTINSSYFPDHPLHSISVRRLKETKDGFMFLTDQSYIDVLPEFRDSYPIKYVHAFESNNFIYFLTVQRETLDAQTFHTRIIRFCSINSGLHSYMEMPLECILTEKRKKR
T1 sequence (P08581 308-1390): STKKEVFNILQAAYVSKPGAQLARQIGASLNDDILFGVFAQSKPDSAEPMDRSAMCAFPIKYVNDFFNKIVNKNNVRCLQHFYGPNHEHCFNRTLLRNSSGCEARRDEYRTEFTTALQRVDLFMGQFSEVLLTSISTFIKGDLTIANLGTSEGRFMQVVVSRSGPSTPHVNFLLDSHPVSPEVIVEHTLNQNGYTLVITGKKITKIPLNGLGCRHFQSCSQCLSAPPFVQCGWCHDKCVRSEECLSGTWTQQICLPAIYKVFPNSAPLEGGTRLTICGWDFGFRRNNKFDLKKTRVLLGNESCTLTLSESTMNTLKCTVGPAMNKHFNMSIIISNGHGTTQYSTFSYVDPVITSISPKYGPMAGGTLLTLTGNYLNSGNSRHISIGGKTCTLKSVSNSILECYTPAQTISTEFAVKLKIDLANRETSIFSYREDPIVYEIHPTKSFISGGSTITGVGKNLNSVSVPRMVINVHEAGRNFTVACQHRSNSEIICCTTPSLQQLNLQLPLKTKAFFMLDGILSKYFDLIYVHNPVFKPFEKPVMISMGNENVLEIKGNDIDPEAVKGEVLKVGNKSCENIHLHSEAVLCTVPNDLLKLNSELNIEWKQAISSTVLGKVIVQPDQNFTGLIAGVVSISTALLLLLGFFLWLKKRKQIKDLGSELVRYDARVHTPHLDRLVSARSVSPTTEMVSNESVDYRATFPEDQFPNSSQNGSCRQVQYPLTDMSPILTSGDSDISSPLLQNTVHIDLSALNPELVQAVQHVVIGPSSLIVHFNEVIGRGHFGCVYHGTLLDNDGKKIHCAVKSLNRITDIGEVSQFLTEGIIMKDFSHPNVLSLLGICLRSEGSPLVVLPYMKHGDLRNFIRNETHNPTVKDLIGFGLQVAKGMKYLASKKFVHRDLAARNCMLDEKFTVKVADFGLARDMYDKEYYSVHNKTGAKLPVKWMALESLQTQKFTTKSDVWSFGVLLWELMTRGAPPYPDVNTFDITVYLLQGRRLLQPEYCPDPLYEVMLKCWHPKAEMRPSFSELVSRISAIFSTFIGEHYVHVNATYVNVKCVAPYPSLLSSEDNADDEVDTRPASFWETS

One may read the inhibition as the percentage by which the read-out fell short of the control. A word on the IC50: it is the concentration needed to halve the response being measured. With `COc1ccc2c(c1)/C(=N\NC(=O)Cc1c[nH]c3ccccc13)C(=O)N2` [HI 5], the inhibition at 10 µM in experiment [1] was found to be 27%. Besides, in experiment [2], the 50% inhibitory concentration (IC50) worked out at 6.32 µM.

Take `CN[C@@H]1C[C@H]2O[C@@](C)([C@@H]1OC)n1c3ccccc3c3c4c(c5c6ccccc6n2c5c31)C(=O)NC4` [Staurosporine]: the inhibition at 10 µM in experiment [3] came to 100%.

The values are drawn from paper PMC7830330, “A New CDK2 Inhibitor with 3-Hydrazonoindolin-2-One Scaffold Endowed with Anti-Breast Cancer Activity: Design, Synthesis, Biological Evaluation, and In Silico Insights” (Molecules, 2021).
